# Like-named read-outs stand apart in the source and are kept apart here.
# How the values were obtained:
# [1] = test system: A549 NRF2-ARE-Fluc stable cell line; experiment: A549 Nrf2 assay: NRF2-ARE firefly luciferase reporter gene assay; type: cell-based; conditions: read-out: Potency of inhibition, A549
# Text: A549, the parental cell line, is a non-small-cell lung cancer (NSCLC) cell line with loss-of-function (LOF) Keap1 activity, thus NRF2 transcription factor constitutively translocates into the nucleus to activate the expression of downstream target genes of NRF2. A firefly luciferase reporter (Fluc) construct driven by a minimal promoter of NRF2-specific anti-oxidant responsive element (ARE) is stably expressed in the A549 cells. Compounds that reduce the translocation of NRF2 into the nucleus or prevent the interaction between NRF2 and ARE will lead to a decrease in luciferase activity.
# The final concentration of DMSO was maintained at 0.46%. Control compounds Budesonide and Staurosporine were both added at a concentration of 2 mM and Budesonide also was added as a 1:10 titration, starting at 200 μM, to achieve dose-response. After an 18-24 hour incubation at 37° C., 95% humidity, and 5% CO2, 1 μL of 5× CellTiter-Fluor non-lytic cell viability assay reagent (Promega, Madison, Wis.) was added into the each well of the plates. The plates were then incubated for 30 minutes at room temperature before they were read on a ViewLux plate imager (Perkin Elmer, Waltham, Mass.) using an excitation wavelength of 405 nm and an emission wavelength of 525 nm.
# A cell based reporter assay approach was used for the identification of agents that could inhibit Nrf2 mediated gene expression (FIG. 1). A549-ARE-luciferase cells express the luciferase gene driven by a minimal promoter and an enhancer element containing an NRF2 binding site (Antioxidant Response Element, ARE).
# (§1) Representative compounds were assayed to assess the potency of inhibition in an A549 NRF2-ARE-Fluc stable cell line (A549 Nrf2 assay), in an H838 NRF2-ARE-Fluc stable cell line (H838 Nrf2 assay), and in an H1437 NRF2-ARE-Fluc stable cell line (H1437 Nrf2 assay) (see Table 3).
# [2] = test system: H1437 NRF2-ARE-Fluc stable cell line; experiment: H1437 Nrf2 assay: NRF2-ARE firefly luciferase reporter gene assay; type: cell-based; conditions: read-out: Potency of inhibition, H1437
# Text: H1437 is another NSCLC cell line with LOF Keap1 activity and constitutive translocation of NRF2 into the nucleus. A firefly luciferase reporter construct driven by a minimal promoter of NRF2-specific ARE is stably expressed in the H1437 cells. This cell line was used as a confirmation assay to make sure hits identified from primary screening and that passed counterscreen assays worked in different cell types with a constitutively active NRF2 pathway (deficiency in Keap1).
# This assay was very similar to the primary assay except that the cell line was changed. […] The final concentration of DMSO was maintained at 0.46%. Control compounds Budesonide and Staurosporine were both added at a concentration of 2 mM and Budesonide was also added as a 1:10 titration, starting at 200 μM, to achieve dose-response. After an 18-24 hour incubation at 37° C., 95% humidity, and 5% CO2, 1 μL of 5× CellTiter-Fluor non-lytic cell viability assay reagent (Promega, Madison Wis.) was added into the each well of the plates. The plates were then incubated for 30 minutes at room temperature before they were read on a ViewLux plate imager (Perkin Elmer, Waltham Mass.) using an excitation wavelength of 405 nm and an emission wavelength of 525 nm.
# as §1
# [3] = Homo sapiens, NCI-H1437, H1437 NRF2-ARE-Fluc stable cell line
SMILES,IC50 ([1]; Homo sapiens) [µM],"IC50 [2, 3] [µM]",IC50 [1] [µM],IC50 ([2]; H1437 NRF2-ARE-Fluc stable cell line) [µM]
O=C(Nc1ccc(S(=O)(=O)N2CCNCC2)cc1)c1ccc(CN2CCc3ccccc3C2)cc1 [compound 154],5 to 25,> 25,–,–
Cc1cccnc1C(=O)N1CCc2cc(-c3nc(NC(=O)Cc4ccc5c(c4)OCO5)sc3C)ccc21 [Compound 141],< 5,> 25,–,–
O=C(Nc1ccc(OC(F)(F)F)cc1)c1ccc(CN2CCc3ccccc3C2)cc1 [compound 178],< 5,< 5,–,–
CC1CN(S(=O)(=O)c2ccc(NC(=O)c3ccc(CN4CCc5ccccc5C4)cc3)cc2)CC(C)O1 (stereo not drawn) [compound 155],< 5,< 5,–,–
Cc1cc(C(=O)Nc2ncc(Cc3ccc(C(F)(F)F)cc3)s2)nn1Cc1ccccn1 [Compound 193],< 5,< 5,–,–
CC1(C)CC2CC(C)(CN2S(=O)(=O)c2ccc(C(=O)Nc3cccc(S(=O)(=O)N4CCOCC4)c3)cc2)C1 (stereo not drawn) [compound 52],< 5,< 5,–,–
Cc1ccccc1C(=O)N1CCc2cc(-c3nc(NC(=O)CN4CCN(c5ccccc5)CC4)sc3C)ccc21 [Compound 229],< 5,< 5,–,–
O=C(Nc1ccc(N2CCOCC2)cc1)c1ccc(CN2CCc3ccccc3C2)cc1 [compound 149],< 5,> 25,–,–
Cc1ccccc1S(=O)(=O)N1CCc2cc(-c3nc(NC(=O)Cc4ccccc4Cl)sc3C)ccc21 [Compound 123],< 5,> 25,–,–
Cc1sc(NC(=O)Cc2ccc3c(c2)OCO3)nc1-c1ccc2c(c1)CCN2C(=O)c1cncn1C [Compound 161],< 5,< 5,–,–
Cc1ccccc1C(=O)N1CCc2cc(-c3nc(NC(=O)c4ccc5c(c4)OCO5)sc3C)ccc21 [Compound 13],< 5,5 to 25,–,–
Cc1occc1C(=O)N1CCc2cc(-c3nc(NC(=O)Cc4ccc5c(c4)OCO5)sc3C)ccc21 [Compound 159],< 5,< 5,–,–
O=C(Nc1ccc(Cl)c(S(=O)(=O)N2CCOCC2)c1)c1ccc(S(=O)(=O)N2CCCCC2)cc1 [compound 54],< 5,< 5,–,–
CC(=O)N1CCN(Cc2ccc(C(=O)Nc3ccc(S(=O)(=O)N4CCOCC4)cc3)cc2)CC1 [Compound 201],5 to 25,5 to 25,–,–
Cc1ccccc1S(=O)(=O)N1CCc2cc(-c3nc(NC(=O)Cc4ccccc4F)sc3C)ccc21 [Compound 122],< 5,< 5,–,–
O=C(Nc1cccc(S(=O)(=O)N2CCOCC2)c1)c1ccc(CN2CCc3ccccc3C2)cc1 [compound 119],5 to 25,> 25,–,–
Cc1sc(NC(=O)Cc2ccc3c(c2)OCO3)nc1-c1ccc2c(c1)CCN2C(=O)c1ccccc1C(F)(F)F [Compound 121],< 5,> 25,–,–
COc1ccc(CC(=O)Nc2nc(-c3ccc4c(c3)CC(C)N4C(=O)c3ccccc3C)c(C)s2)cc1 (stereo not drawn) [Compound 232],5 to 25,5 to 25,–,–
Cc1sc(NC(=O)Cc2ccc3c(c2)OCO3)nc1-c1ccc2c(c1)CCN2C(=O)c1ccccc1C(C)C [Compound 138],< 5,> 25,–,–
O=C(Nc1ncc(Cc2ccc(C(F)(F)F)cc2)s1)c1ccn(-c2cccnc2)n1 [Compound 175],5 to 25,5 to 25,–,–
Cc1sc(NC(=O)Cc2ccc3c(c2)OCO3)nc1-c1ccc2c(c1)CCN2C(=O)c1cnoc1C(C)C [Compound 158],< 5,> 25,–,–
CC(C)(C)OC(=O)N1CCN(S(=O)(=O)c2ccc(NC(=O)c3ccc(CN4CCc5ccccc5C4)cc3)cc2)CC1 [compound 144],< 5,< 5,–,–
Cc1sc(NC(=O)Cc2ccc3c(c2)OCO3)nc1-c1ccc2c(c1)CCN2C(=O)c1c(Cl)cnn1C [Compound 187],< 5,< 5,–,–
CC(=O)N1CCc2cc(S(=O)(=O)NCCC3=CCCCC3)ccc21 [Compound 35],< 5,5 to 25,–,–
CCOC(=O)N1CCN(Cc2ccc(C(=O)Nc3ccc([S+](=O)([O-])N4CCOCC4)cc3)cc2)CC1 [Compound 202],5 to 25,5 to 25,–,–
"Cc1ccccc1C(=O)N1CCc2cc(-c3nc(NC(=O)CN4CCNCC4)sc3C)ccc21 [Compound 70, N-(5-methyl-4-(1-(2-methylbenzoyl)indolin-5-yl)thiazol-2-yl)-2-(piperazin-1-yl)acetamide]",> 25,> 25,–,–
COc1ccc(CC(=O)Nc2nc(-c3ccc4c(c3)CCN4C(=O)c3ccnn3C)c(C)s2)cc1 [Compound 197],< 5,< 5,–,–
Cc1ccccc1C(=O)N1CCc2cc(-c3nc(NC(=O)CN4CCN(C)CC4)sc3C)ccc21 [Compound 72],> 25,5 to 25,–,–

# Results, then the compound that gave them:
IC50 ([1]; Homo sapiens) [µM],"IC50 [2, 3] [µM]",IC50 [1] [µM],IC50 ([2]; H1437 NRF2-ARE-Fluc stable cell line) [µM],SMILES
5 to 25,5 to 25,–,–,O=C(Nc1ccnc(Cc2ccccc2)c1)c1ccc(-c2cccc([N+](=O)[O-])c2)o1 [Compound 177]
5 to 25,< 5,–,–,Cc1cccc(Cn2ccc(C(=O)Nc3ncc(Cc4ccc(C(F)(F)F)cc4)s3)n2)c1 [Compound 189]
< 5,> 25,–,–,O=C(Nc1ncc(Cc2ccc(C(F)(F)F)cc2)s1)c1cccc(-c2ccccc2)n1 [Compound 61]
5 to 25,> 25,–,–,O=C(Nc1cccc(Cc2ccccc2)n1)c1ccc(-c2cccc([N+](=O)[O-])c2)o1 [Compound 142]
< 5,< 5,–,–,O=C(Nc1ncc(Cc2ccc(F)cc2)s1)c1ccn(-c2ccccc2)n1 [Compound 222]
> 25,> 25,–,–,O=C(CCc1ccccc1)Nc1ncc(Cc2ccc(C(F)(F)F)cc2)s1 [Compound 74]
5 to 25,5 to 25,–,–,"Cc1ccccc1C(=O)N1CCc2cc(-c3nc(NC(=O)Cc4ccc(O)cc4)sc3C)ccc21 [Compound 235, 2-(4-hydroxyphenyl)-N-(5-methyl-4-(1-(2-methylbenzoyl)indolin-5-yl)thiazol-2-yl)acetamide]"
> 25,> 25,–,–,O=C(CCCc1ccccc1)Nc1ncc(Cc2ccc(C(F)(F)F)cc2)s1 [Compound 108]
> 25,> 25,–,–,O=C(Cc1ccccc1)Nc1cccc(-c2ccc(N3CCOCC3)cc2)n1 [Compound 78]
< 5,> 25,–,–,O=C(Nc1cccc(Nc2ccccc2)c1)c1ccc(-c2cccc([N+](=O)[O-])c2)o1 [Compound 137]
< 5,< 5,–,–,CN(Cc1ccccc1)Cc1ccc(C(=O)Nc2ccc(S(=O)(=O)N3CCOCC3)cc2)cc1 [compound 168]
5 to 25,5 to 25,–,–,Cc1ccccc1C(=O)N1CCc2cc(-c3nc(NS(=O)(=O)Cc4ccccc4)sc3C)ccc21 [Compound 109]
> 25,> 25,–,–,O=C(Nc1ncc(Cc2ccc(C(F)(F)F)cc2)s1)c1ncc(-c2ccccc2)[nH]1 [Compound 151]
> 25,> 25,–,–,"O=C(Cc1ccccc1)Nc1cccc(-c2ccc3[nH]cnc3c2)n1 [Compound 57, N-(6-(1H-benzo[d]imidazol-5-yl)pyridin-2-yl)-2-phenylacetamide]"
5 to 25,> 25,–,–,Cc1ccccc1C(=O)Nc1ccc(-c2cccc(NC(=O)Cc3ccccc3)n2)cc1 [Compound 71]
–,–,< 5,5 to 25,Cc1sc(NC(=O)Cc2ccc3c(c2)OCO3)nc1-c1ccc2c(c1)CCN2C(=O)c1ccccc1 [Compound 14]
5 to 25,> 25,–,–,O=C(Nc1ncc(Cc2ccc(C(F)(F)F)cc2)s1)c1cnc(-c2ccccc2)s1 [Compound 99]
5 to 25,5 to 25,–,–,O=C(Nc1ncc(Cc2ccc(C(F)(F)F)cc2)s1)c1ccc(-c2ccc([N+](=O)[O-])cc2)o1 [Compound 22]
> 25,5 to 25,–,–,O=C(Nc1ncc(Cc2ccc(C(F)(F)F)cc2)s1)c1ccnc(-c2ccccc2)c1 [Compound 58]
5 to 25,5 to 25,–,–,Cc1ccc(Cc2cnc(NC(=O)c3ccn(-c4ccccc4)n3)s2)cc1 [Compound 221]
